The values that follow come from paper PMC12292521, “Discovery of a Potent Antimicrobial Peptide Through Rational Design: A New Frontier in Pathogen Control” (Biomolecules, 2025).

Peptide text beside a SMILES is read from it.

The nature of data set [1]: Conformational stability by CD and fluorescence spectroscopy in SDS. In kind it is physicochemical. The method, then: The secondary structure elements of the antimicrobial molecule were analyzed in a 0.1 cm optical path-length quartz cuvette (Hellma Analytics, Milan, Italy) using Jasco J-810 Circular Dichroism Spectropolarimeter (JASCO, Tokyo, Japan). All spectra were recorded at 25 °C in a wavelength range of 190–250 nm with a 1 nm bandwidth, a scanning speed of 20 nm/min, and averaged over five scans. The spectra as a function of SDS concentration (3, 50, and 150 mM) were obtained at 50 μM final concentration of peptide in 10 mM Tris-HCl buffer, pH 7.0. The folding kinetic analysis of the peptide was carried out after the addition of SDS (50 mM) to the sample (50 μM in 10 mM Tris-HCl, pH 7.0), up to 24 h incubation. […] Next, 50 mM of SDS was added to each sample, which was analyzed by CD spectroscopy after 48 h of incubation at 25 °C. […] All CD spectra of RKW were corrected by subtracting a blank spectrum of a sample containing all components except the peptide (baseline correction). The mean residue ellipticity ([θ], deg. cm^2 dmol^−1) was obtained by the equation [θ] = 100 θ/cnl, where θ is the ellipticity (mdeg), c is the peptide concentration (mM), n is the number of residues, and l is the path length (cm).
Fluorescence experiments were conducted in a Shimadzu RF-6000 spectrofluorometer (Kyoto, Japan). The analyses were performed by setting an excitation and emission slit width of 5 nm and using a quartz cell with a path length of 1 cm. The intrinsic tryptophan residues were excited at a wavelength of 280 nm, following the emission between 300 and 400 nm. The effects of SDS on the peptide folding, the folding kinetics, and the thermal and the pH stability were monitored as described in Section 2.2.

Data set [2] concerns Candida albicans ATCC 10231. In words: Quantitative suspension test, fungicidal activity, BS EN 1650:2019. In kind it is cell-based. The arrangement: key to Fungicidal activity verdict: Active: For fungi: ACTIVE if log R ≥ 4 according to BS EN 1650:2019; Not Active: For fungi: ACTIVE if log R ≥ 4 according to BS EN 1650:2019. The following applies: vegetative cells, 60 min, 37 °C, BSA 0.3 g/L. The text has this:
(§1) The method is based on the suspension test according to BS EN 1276:2019, which specifies a quantitative suspension analysis for the evaluation of the bactericidal activity of chemical disinfectants and antiseptics used in food, industrial, domestic, and institutional areas against a panel of microorganisms under conditions that more closely simulate practical use. Briefly, S. aureus ATCC 6538, P. aeruginosa ATCC 15442, and Staphylococcus epidermidis ATCC 12228 were used as test organisms at a bacterial concentration of 1.0 × 10^8 colony-forming units (CFU) per mL (CFU/mL). In the test, BSA (Bovine Serum Albumin) (0.3 g/L) was used as an interfering substance to mimic clean conditions. […] The reaction mixture was incubated at 37 °C for 60 min before transferring each sample to a tube containing a neutralizer solution consisting of 30 g/L polysorbate 80, 1 g/L sodium thiosulfate, 3 g/L lecithin, 1 g/L tryptone, 8.5 g/L NaCl, 100 mL/L phosphate buffer and water. The negative control (untreated cells) was prepared using PBS instead of biocides. The solutions were then plated onto Tryptone Soy Agar (TSA) and incubated at 37 °C for 48 h to determine the logarithmic CFU/mL reduction, according to the following Equation:(2) log R = log (N0) − log (Na) where R refers to the reduction in viability, N refers to the number of CFU/mL in the test mixture at the beginning of the contact time, and Na refers to the number of CFU/mL in the test mixture at the end of the contact time. […] The test method and the minimum requirements for fungicidal activity of chemical disinfectant and antiseptic products were performed according to BS EN 1650:2019. The fungicidal activity was studied using the vegetative cells of Candida albicans ATCC 10231 and the spores of Aspergillus brasiliensis ATCC 16404 as test organisms. […] The mixture was maintained at 37 °C for a contact time of 60 min. At the end of this contact time, an aliquot was taken, and the fungicidal activity was immediately neutralized with a solution consisting of 30 g/L polysorbate 80, 1 g/L sodium thiosulfate, 3 g/L lecithin, 1 g/L tryptone, 8.5 g/L NaCl, 100 mL/L phosphate buffer and water. The samples were then plated onto malt extract agar (MEA) and incubated at 30 °C for 48 h to determine the numbers of surviving fungi as the logarithmic CFU/mL reduction, calculated according to Equation (2).

Data set [3] deals with Aspergillus brasiliensis ATCC 16404. The description is as above. The arrangement: key to Fungicidal activity verdict: Active: For fungi: ACTIVE if log R ≥ 4 according to BS EN 1650:2019; Not Active: For fungi: ACTIVE if log R ≥ 4 according to BS EN 1650:2019. In kind it is cell-based. The following applies: spores, 60 min, 37 °C, BSA 0.3 g/L.
From the text: as §1

`CC[C@H](C)[C@H](NC(=O)[C@H](Cc1c[nH]c2ccccc12)NC(=O)[C@H](CCCCN)NC(=O)[C@@H](N)CCCNC(=N)N)C(=O)N[C@@H](CC(C)C)C(=O)N[C@@H](CCCCN)C(=O)N[C@@H](Cc1c[nH]c2ccccc12)C(=O)N[C@@H](CC(C)C)C(=O)N[C@@H](CCCNC(=N)N)C(=O)N[C@H](C(=O)N[C@@H](Cc1c[nH]c2ccccc12)C(=O)N[C@@H](CCCCN)C(=O)N[C@@H](CCCCN)C(N)=O)[C@@H](C)O` [RKW] (H-RKWILKWLRTWKK-NH2; N-terminus assumed): the “α-helical conformation over time in SDS” value in data set [1] (50 μM peptide, 10 mM Tris-HCl pH 7.0, 50 mM SDS, 25 °C, up to 24 h, CD and fluorescence) is “did not markedly change its α-helical conformation”. Moreover, the “Helical content at extreme acidic pH” value in data set [1] (50 μM peptide, 10 mM glycine-HCl pH 2.0, 50 mM SDS, 48 h at 25 °C, CD) is listed as “entirely disordered”. Moreover, the “Structural and folding stability in SDS micellar solution under other pH and temperature conditions” value in data set [1] (50 μM peptide, 50 mM SDS, pH 7.0 and 11.0 at 25 °C, 4, 37 and 90 °C at pH 7.0, 48 h, CD and fluorescence) is given as “not markedly affected”. For the same molecule, the “Time the α-helical conformation remains stable in a wide range of pH and temperature” value in data set [1] (membrane-like environment (SDS), abstract) is given as “at least 48 h”. Moreover, the Fungicidal activity verdict result in data set [2] (RKW 5 µM) is “Na = 7.70 × 10^4 log Na = 4.89 log R = 1.71 Not Active”; in data set [2] (RKW 10 µM) it was “Na = 1.08 × 10^3 log Na = 3.03 log R = 3.57 Not Active”; in data set [2] (RKW 20 µM) it was “Na = 2.75 × 10^2 log Na = 2.44 log R = 4.16 Active”; in data set [2] (RKW 50 µM), “Na = 2.75 × 10^2 log Na = 2.44 log R = 4.16 Active”; in data set [2] (RKW 100 µM), “Na = 2.75 × 10^2 log Na = 2.44 log R = 4.16 Active”; in data set [3] (RKW 5 µM) it was “Na = 3.40 × 10^6 log Na = 6.53 log R = −0.28 Not Active”. The Fungicidal activity verdict entry in data set [3] (RKW 10 µM) is “Na = 3.30 × 10^6 log Na = 6.52 log R = −0.29 Not Active”; in data set [3] (RKW 20 µM) it was “Na = 2.20 × 10^6 log Na = 6.34 log R = −0.09 Not Active”; in data set [3] (RKW 50 µM) it was “Na = 2.20 × 10^6 log Na = 6.34 log R = −0.09 Not Active”; in data set [3] (RKW 100 µM), “Na = 2.20 × 10^6 log Na = 6.34 log R = −0.09 Not Active”. Moreover, the “Na (CFU/mL at the end of the contact time)” value in data set [2] (RKW 5 µM) is given as 7.70 × 10^4 CFU/mL; in data set [2] (RKW 10 µM), 1.08 × 10^3 CFU/mL; in data set [2] (RKW 20 µM) it was 2.75 × 10^2 CFU/mL; in data set [2] (RKW 50 µM) it was 2.75 × 10^2 CFU/mL; in data set [2] (RKW 100 µM), 2.75 × 10^2 CFU/mL; in data set [3] (RKW 5 µM), 3.40 × 10^6 CFU/mL. Also, the “Na (CFU/mL at the end of the contact time)” value in data set [3] (RKW 10 µM) was 3.30 × 10^6 CFU/mL; in data set [3] (RKW 20 µM), 2.20 × 10^6 CFU/mL; in data set [3] (RKW 50 µM), 2.20 × 10^6 CFU/mL; in data set [3] (RKW 100 µM), 2.20 × 10^6 CFU/mL.
